What was measured:
[1] = target: Recombinant human KIF18A (1-467His-tagged) protein (Homo sapiens (Human), UniProt Q8NI77); assay: KIF18A enzyme assay (microtubule-stimulated ATPase activity, ADP-Glo); format: biochemical; details: 30 nM KIF18A, ATP 75 μM, read-out: inhibitory activity against KIF18A IC50
Outline: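 Baculovirus-expressed human KIF18A (1-467, His-tagged; 30 nM) preincubated 15 min at room temperature with compound (22-point 2-fold series) in pH 7.5 Tris buffer containing 30 μg/mL pig microtubules and 1 μM paclitaxel.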

HT-29 cells = assay: In vitro anti-proliferative activity against HT-29 cells (intracellular ATP content, 72 h); format: cell-based; details: Homo sapiens, 72 h after dosing
Description: Biological Example 2. In Vitro Anti-Proliferative Activity of Compounds of the Present Invention Against HT-29 Cells
(§1) HT-29 cells were seeded on a 384-well plate at 3000 cells/well. After overnight adherence culture, DMSO or the compounds serially diluted in a 1:5 ratio from 5 μM were added. The viability was assessed 72 h after dosing by measuring the intracellular ATP content. The inhibition percentages of viable cells by the compounds were calculated by comparing with the DMSO group, and the IC so values were also calculated.

HCT116 cells = assay: In vitro anti-proliferative activity against HCT116 cells (intracellular ATP content, 72 h); format: cell-based; details: Homo sapiens, HCT-116, 72 h after dosing
Description: Biological Example 3. In Vitro Anti-Proliferative Activity of Compounds of the Present Invention Against HCT116 Cells
as §1, with “HCT116” for “HT-29”, “IC50” for “IC so”

Sequence of Recombinant human KIF18A (1-467His-tagged) protein (Q8NI77 1-467): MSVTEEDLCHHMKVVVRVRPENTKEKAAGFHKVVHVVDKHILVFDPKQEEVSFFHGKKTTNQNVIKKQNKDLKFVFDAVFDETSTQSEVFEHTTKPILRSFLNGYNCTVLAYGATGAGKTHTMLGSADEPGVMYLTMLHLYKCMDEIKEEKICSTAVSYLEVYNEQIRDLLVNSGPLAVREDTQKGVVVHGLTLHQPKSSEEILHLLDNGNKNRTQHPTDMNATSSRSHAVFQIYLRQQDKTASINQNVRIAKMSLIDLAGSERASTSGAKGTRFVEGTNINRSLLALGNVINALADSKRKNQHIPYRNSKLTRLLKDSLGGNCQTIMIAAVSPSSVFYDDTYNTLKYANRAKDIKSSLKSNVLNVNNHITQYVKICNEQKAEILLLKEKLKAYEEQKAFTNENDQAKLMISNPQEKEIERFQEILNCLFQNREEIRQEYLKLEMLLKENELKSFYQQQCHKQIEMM
Sequence of Recombinant human KIF18A (1-467His-tagged) protein (P02550 whole entry partner): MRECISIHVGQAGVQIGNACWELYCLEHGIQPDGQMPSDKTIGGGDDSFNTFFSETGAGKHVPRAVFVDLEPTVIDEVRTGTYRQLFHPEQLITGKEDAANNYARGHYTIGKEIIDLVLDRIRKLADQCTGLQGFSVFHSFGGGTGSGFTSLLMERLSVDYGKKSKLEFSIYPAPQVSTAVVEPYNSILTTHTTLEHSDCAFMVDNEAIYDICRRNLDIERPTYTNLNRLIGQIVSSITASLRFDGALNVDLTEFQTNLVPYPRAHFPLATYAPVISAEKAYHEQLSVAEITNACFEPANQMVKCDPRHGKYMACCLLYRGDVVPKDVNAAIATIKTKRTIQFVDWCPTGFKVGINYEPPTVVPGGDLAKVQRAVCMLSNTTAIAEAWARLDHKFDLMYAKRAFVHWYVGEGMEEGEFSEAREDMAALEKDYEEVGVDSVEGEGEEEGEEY
Sequence of Recombinant human KIF18A (1-467His-tagged) protein (P02554 whole entry partner): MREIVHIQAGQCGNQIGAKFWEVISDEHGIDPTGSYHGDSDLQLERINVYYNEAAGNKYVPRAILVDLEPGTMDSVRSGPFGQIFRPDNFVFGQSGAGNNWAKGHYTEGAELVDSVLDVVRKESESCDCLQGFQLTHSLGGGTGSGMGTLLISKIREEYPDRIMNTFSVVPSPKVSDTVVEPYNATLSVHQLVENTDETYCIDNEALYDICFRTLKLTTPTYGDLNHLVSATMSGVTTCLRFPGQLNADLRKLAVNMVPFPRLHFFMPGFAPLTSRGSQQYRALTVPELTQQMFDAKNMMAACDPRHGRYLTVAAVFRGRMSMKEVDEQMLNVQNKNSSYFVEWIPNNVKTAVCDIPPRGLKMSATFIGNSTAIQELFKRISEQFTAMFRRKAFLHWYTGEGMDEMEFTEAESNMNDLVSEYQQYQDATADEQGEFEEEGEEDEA

Compound	IC50 [1] [nM]	IC50 (HT-29 cells) [nM]	IC50 (HCT116 cells) [nM]
O=C(Nc1cc2c(c(OC3CCC3)n1)OCC2)c1ccc(NS(=O)(=O)CCO)cc1N1CCC2(CC1)CC2 [Compound 71]	≤ 100	56	> 10000
O=C(Nc1cc2c(c(N3CCC(F)(F)CC3)n1)OCC2)c1ccc(S(=O)(=O)NCCO)cc1N1CCC2(CC1)CC2 [Compound 81]	≤ 100	51	> 10000
O=C(Nc1ccc(NS(=O)(=O)CCO)cc1N1CCC2(CC1)CC2)c1cc2c(c(N3CCC(F)(F)CC3)n1)OCC2 [Compound 97]	≤ 100	57	> 10000
O=C(Nc1ccc(S(=O)(=O)NCCO)cc1N1CCC2(CC1)CC2)c1cc2c(c(N3CCC(F)(F)CC3)n1)OCC2 [Compound 113]	≤ 100	81	> 10000
O=C(Nc1cc(N2CCC(F)(F)CC2)c2occc2c1)c1ccc(NS(=O)(=O)CCO)cc1N1CCC2(CC1)CC2 [Compound 129]	≤ 100	40	> 10000

Second part, the compound after the results:

IC50 [1] [nM]	IC50 (HT-29 cells) [nM]	IC50 (HCT116 cells) [nM]	Compound
≤ 100	71	> 10000	O=C(Nc1cc(N2CCC(F)(F)CC2)c2ocnc2c1)c1ccc(NS(=O)(=O)CCO)cc1N1CCC2(CC1)CC2 [Compound 513]
≤ 100	69	8190	O=C(Nc1cc2cc[nH]c2c(N2CCC(F)(F)CC2)n1)c1ccc(NS(=O)(=O)CCO)cc1N1CCC2(CC1)CC2 [Compound 522]
≤ 100	36	> 10000	O=C(Nc1cc(N2CCC(F)(F)CC2)c2ncccc2c1)c1ccc(NS(=O)(=O)CCO)cc1N1CCC2(CC1)CC2 [Compound 530]
≤ 100	43	> 10000	O=C(Nc1cc2c(c(N3CCC(F)(F)CC3)c1)OCCC2)c1ccc(NS(=O)(=O)CCO)cc1N1CCC2(CC1)CC2 [Compound 539]

Source: patent publication US20250197382A1, “KIF18A INHIBITOR” (WIGEN BIOMEDICINE TECHNOLOGY (SHANGHAI) CO., LTD., priority 2022, published 2025)
